Measured values taken from patent publication US20250241876A1, “ANTI-TUMOR COMPOUNDS AND METHODS OF USE THEREOF AND SYNTHESIS THEREOF” (Atossa Therapeutics, Inc., priority 2023, published 2025).

Assays:
Format in all cases: cell-based
T47D cells [1] = assay: Scratch-wound cell migration assay, Example 24, T47D; conditions: highest dose examined (5 μM)
Method: (§1) This example covers cell migration assays with endoxifen and endoxifen-related compounds. Scratch-wound density and width measurements were tracked for 70 to 100 hours in MCF7 and T47D samples following treatment with a compound. […] FIG. 75 is a series of images of masked and unmasked wounds from the cell migration assays, with the rightmost figure showing invadopodia in cells within wound sites. In FIGS. 76-85, subfigure A is a plot of relative wound density, subfigure B is a plot of wound width, and subfigure C is a series of representative wound images from Day 3 or 4 of treatment. FIGS. 76-85 correspond to endoxifen treatment of MCF7 samples (FIG. 76), endoxifen treatment of T47D samples (FIG. 77), Compound 5b treatment of MCF7 samples (FIG. 78), Compound 5b treatment of T47D samples (FIG. 79), Compound 5a treatment of MCF7 samples (FIG. 80), Compound 5a treatment of T47D samples (FIG. 81), Compound 7b treatment of MCF7 samples (FIG. 82), Compound 7b treatment of T47D samples (FIG. 83), Compound 7a treatment of MCF7 samples (FIG. 84), and Compound 7a treatment of T47D samples (FIG. 85), respectively. […]
(§2) Migration inhibition was primarily detected at the highest tested dose (5 μM), which may be due to the fact that MCF7 and T47D cells are not migratory in nature under normal conditions. […]

MCF7 cells [2] = assay: Migration and invasion inhibition assays, MCF7; conditions: p<0.0001
[3] = test system: estrogen-induced and ERα-mediated activation of an estrogen response element (ERE) luciferase reporter construct in ER+ T47D cells; assay: Luciferase (ERE reporter) agonist/antagonist assay, ER+ cells; conditions: CSS+E2 media
T47D cells [4] = assay: 2D culture proliferation, T47D; conditions: estrogen-deficient conditions
Text: (§3) Approximately 80% of breast cancers express estrogen receptor alpha (ERα, ESR1) which drives cancer progression. […] (Z)-Endoxifen (ENDX), an active metabolite of tamoxifen, is a potent orally bioavailable selective estrogen receptor modulator with a favorable safety profile now under development for breast health applications. Its synthesis yields endoxifen-related byproduct new chemical entities (NCE), including Compound 7b, Compound 7a, Compound 5b and Compound 5a. This study compared the anti-estrogenic effects of these compounds to (Z)-endoxifen in ERα+ breast cancer cell lines (MCF7, T47D, UCD12), including those with ESR1 mutations (Y537S, D538G) linked to endocrine resistance.

T47D cancer cells = assay: Cell migration (scratch-wound) assay, Example 20; conditions: high doses (FIGS. 58, 60, 62); 0 to 100 hours
Method: This example covers cell migration assays with endoxifen and multiple endoxifen-related compounds on T47D cancer cells. FIGS. 52A, 53A, 54A, 55A, and 56A are plots of relative wound density following treatment with vehicle or 0.02 to 6 μM endoxifen (FIG. 52A), Compound 5b (FIG. 53A), Compound 5a (FIG. 54A), Compound 7a (FIG. 55A), and Compound 7b (FIG. 56A) as a function of time (0 to 100 hours). FIGS. 52B, 53B, 54B, 55B, and 56B are plots of wound width following treatment with vehicle or 0.02 to 6 μM endoxifen (FIG. 52B), Compound 5b (FIG. 53B), Compound 5a (FIG. 54B), Compound 7a (FIG. 55B), and Compound 7b (FIG. 56B) as a function of time (0 to 100 hours). FIGS. 52C, 53C, 54C, 55C, and 56C are series of plots of individual replicates of relative wound density and wound width for endoxifen, Compound 5b, Compound 5a, Compound 7a, and Compound 7b, respectively. FIG. 57 is a plot of relative wound density over time (0 to 100 hours) for a wound treated with vehicle (DMSO), 5 μM endoxifen, 5 μM Compound 5b, and 5 μM Compound 5a. FIG. 58 is a plot of relative wound density over time (0 to 100 hours) for a wound treated with vehicle (DMSO), 5 μM endoxifen, 5 μM Compound 7a, and 5 μM Compound 7b. FIG. 59 is a plot of relative wound density over time (0 to 100 hours) for a wound treated with vehicle (DMSO), 2.5 μM endoxifen, 2.5 μM Compound 5b, and 2.5 μM Compound 5a. […]

MCF7 cells [5] = assay: Scratch-wound cell migration assay, Example 24, MCF7; conditions: highest dose examined (5 μM)
Method: as §1, §2

T47D cells [6] = assay: Apoptosis induction, T47D, Example 29; conditions: for apoptosis induction in T47D cells: p<0.0001 vs. vehicle
T47D cells [7] = assay: Anti-invasion (scratch wound) assay, Example 25; conditions: 1.25, 2.5, 5 μM
Text: This example covers anti-invasion, apoptosis, and toxicity assays for various endoxifen-related compounds against multiple cancer cell lines. FIGS. 90A-F are plots that summarize results of proliferation assays for multiple cancer cell lines (MCF7, T47D, UCD4, and UCD12) in the presence of varying doses of endoxifen and multiple endoxifen-related compounds. FIGS. 91A-C are plots that summarize results of wound confluence measurements from scratch wound assays on T47D cells in the presence of 1.25 μM (FIG. 91A), 2.5 μM (FIG. 91B), and 5 μM (FIG. 91C) endoxifen and multiple endoxifen-related compounds. FIGS. 92A-C are plots that summarize results of wound density measurements from scratch wound assays on T47D cells in the presence of 1.25 μM (FIG. 92A), 2.5 μM (FIG. 92B), and 5 μM (FIG. 92C) endoxifen and multiple endoxifen-related compounds. FIGS. 93A-C are plots that summarize results of wound confluence measurements from scratch wound assays on MCF7 cells in the presence of 1.25 μM (FIG. 93A), 2.5 μM (FIG. 93B), and 5 μM (FIG. 93C) endoxifen and multiple endoxifen-related compounds. FIGS. 94A-C are plots that summarize results of wound density measurements from scratch wound assays on MCF7 cells in the presence of 1.25 μM (FIG. 94A), 2.5 μM (FIG. 94B), and 5 μM (FIG. 94C) endoxifen and multiple endoxifen-related compounds. […]

T47D cells [8] = assay: Migration and invasion inhibition assays, T47D; conditions: p<0.0001
[9] = test system: ERα+ breast cancer cell lines (MCF7, T47D, UCD12), including those with ESR1 mutations (Y537S, D538G); assay: 2D culture proliferation, all lines, Example 29; conditions: 2D cultures, estrogen-containing media, 0.02-5 μM, across all lines; p<0.0001 vs. vehicle
Text: as §3

[10] = test system: ERα+ breast cancer cell lines; assay: Cell cycle arrest, Example 29
Text: as §3

[11] = test system: ERα+ breast cancer cell lines in 3D cultures; assay: 3D culture cancer cell proliferation; conditions: ~1 μM
Text: as §3

[12] = test system: ERα+ breast cancer cell lines; assay: RT-qPCR analysis; conditions: 0.1 μM
[13] = test system: T47D cells with Y537S or D538G mutations; assay: Proliferation, T47D ESR1 mutants
Text: as §3

MCF7 cells [14] = assay: 2D culture proliferation, MCF7; conditions: 2D cultures, estrogen-containing media
Text: as §3

UCD12 cells = assay: 2D culture proliferation, UCD12; conditions: 2D cultures, estrogen-containing media
Text: as §3

SMILES | potency at inhibiting the migration and proliferation compared with endoxifen (T47D cells [1]) | migration and invasion inhibition compared with (Z)-endoxifen (MCF7 cells [2]) | anti-proliferative effects in ER+ cells compared with endoxifen [3] | anti-proliferative activity compared with (Z)-endoxifen (T47D cells [4]) | potency at inhibiting the migration and proliferation of T47D cells compared with endoxifen (T47D cancer cells) | potency at inhibiting the migration and proliferation compared with endoxifen (MCF7 cells [5]) | apoptosis induction in T47D cells (T47D cells [6]) | potency at inhibiting the invasion of T47D cells compared with endoxifen (T47D cells [7]) | migration and invasion inhibition compared with (Z)-endoxifen (T47D cells [8]) | anti-proliferative effect, inhibition [9] | G1 cell cycle arrest [10] | potency in 3D cultures, ranking [11] | RT-qPCR analysis, potency ranking [12] | potency, ranking [13] | anti-proliferative effect, ranking (MCF7 cells [14]) | anti-proliferative effect, ranking (UCD12 cells) | apoptosis induction in T47D cells, ranking (T47D cells [6])
CC/C(=C(/c1ccc(O)cc1)c1ccc(OCCN(C)C(C)=O)cc1)c1ccccc1 [Compound 7b] | more potent than endoxifen | consistently outperformed (Z)-endoxifen | closely resemble that of endoxifen | more effective | greater potency than endoxifen | more potent than endoxifen | significantly induced | more potent than endoxifen | consistently outperformed (Z)-endoxifen | – | – | – | – | – | – | – | –
CC/C(=C(\c1ccc(O)cc1)c1ccc(OCCNC)cc1)c1ccccc1 [(Z)-endoxifen, (Z)-Endoxifen, reference compound] | – | – | – | – | – | – | significantly induced | – | – | 20-90% | most effective | comparable, superior potency | most potent | most potent | strongest effects | strongest effects | superior activity
